Broadly, the IC50 is the point on the concentration scale where inhibition reaches its midpoint. Low readings indicate higher potency, high ones lower potency.

This is an account of results in ChEMBL document CHEMBL4145482, “Discovery of novel HSP90 inhibitors that induced apoptosis and impaired autophagic flux in A549 lung cancer cells” (Eur J Med Chem, 2018).

The source made the active and inactive calls. The calls are words filed in the database; no cut-off is given here.

For series [1], the target named is T1, Heat shock protein HSP90 (Homo sapiens) (UniProt P07900+P08238). Nature of the series: Inhibition of anti-HSP90 antibody binding to HSP90 in human A549 cells preincubated for 1 hr followed by antibody addition by Western blot analysis. Type of series: cell-based. On the technique in general: Immunoblotting shows a protein as a band on a membrane.
The test system of series [2] is A549. Nature of the series: Growth inhibition of human A549 cells after 48 hrs by SRB assay. Type of series: functional, cell-based. The note with it: for IC50: A549, 48 h.
In series [3] the test system is A549. In words: Induction of necrosis in human A549 cells at 10 to 20 uM after 48 hrs by LDH release assay. Type of series: functional, cell-based.
In series [4] the test system is A549. Nature of the series: Induction of apoptosis in human A549 cells assessed as DNA fragmentation at 10 uM after 6 to 24 hrs by Hoechst 33258 staining based fluorescence microscopic method. Type of series: functional, cell-based.
For series [5], the system named is A549. In words: Induction of apoptosis in human A549 cells assessed as chromatin condensation at 10 uM after 6 to 24 hrs by Hoechst 33258 staining based fluorescence microscopic method. Type of series: functional, cell-based.
Series [6] has as its system A549. Nature of the series: Inhibition of autophagic flux in human A549 cells assessed as increase in LC3-2 protein level at 10 uM after 24 hrs by Western blot analysis. It counts as functional, cell-based.
Series [7] relates to A549. In words: Inhibition of autophagic flux in human A549 cells assessed as increase in p62 protein level at 10 uM after 24 hrs by Western blot analysis. It counts as functional, cell-based.
Series [8] has as its system A549. Nature of the series: Inhibition of autophagic flux in human A549 cells assessed as increase in LC3-2 protein level at 10 uM after 24 hrs in presence of V-ATPase inhibitor bafilomycin-A1 by Western blot analysis. It counts as functional, cell-based.
Series [9] deals with A549. Nature of the series: Inhibition of autophagic flux in human A549 cells assessed as increase in p62 protein level at 10 uM after 24 hrs in presence of V-ATPase inhibitor bafilomycin-A1 by Western blot analysis. It counts as functional, cell-based.
The subject of series [10] is A549. In words: Growth inhibition of human A549 cells up to 20 uM up to 48 hrs by SRB assay. It counts as functional, cell-based. On the technique in general: In SRB staining, fixed cells bind dye roughly in proportion to their protein.
In series [11] the target is T1, Heat shock protein HSP90 (Homo sapiens). Nature of the series: Inhibition of HSP90 in human A549 cells assessed as reduction in AKT protein expression at 10 uM up to 48 hrs by Western blot analysis. It counts as cell-based.
Series [12] has the same target. In words: Inhibition of HSP90 in human A549 cells assessed as reduction in NFkB p65 protein expression at 10 uM up to 48 hrs by Western blot analysis. Type of series: cell-based.
Series [13] deals with A549. Nature of the series: Effect on HSP90 protein expression in human A549 cells at 10 uM up to 48 hrs by Western blot analysis. The note with it: a549, 48 h. Type of series: cell-based.
The subject of series [14] is A549. In words: Upregulation of HSP70 protein expression in human A549 cells at 10 uM up to 48 hrs by Western blot analysis. It counts as cell-based. The note with it: a549, 48 h.
The next series has as its system HUVEC. Nature of the series: Cytotoxicity against HUVEC assessed as reduction in cell viability after 48 hrs by SRB assay. Conditions: human. Type of series: cell-based.

For the molecule `COc1ccc(C2CC(c3cc4ccc(O)cc4oc3=O)=NN2c2ccc(Br)cc2)cc1` (stereo unspecified), in series [1], the inhibition result is “Dose-dependent effect”. Also, the “growth inhibition (GI)” value with A549 [2] is “Dose-dependent effect”. The IC50 in the series on A549 [2] amounted to 6.5 µM. Besides, the result with A549 [3], in the series on A549 [8] and with A549 [9] was inactive. Moreover, the outcome in the series with A549 [4], with A549 [5], in the series with A549 [6] and with A549 [7] was Active.

For `O=c1[nH]cc(F)c(=O)[nH]1`, in the series on A549 [10], the “growth inhibition (GI)” value is “inactive”.

Consider `O=c1oc2cc(O)ccc2cc1C1=NN(c2ccc(F)cc2)C(c2ccccc2)C1` (stereo unspecified), for which, in [1], the inhibition result was “Dose-dependent effect”. For the same molecule, in the series with A549 [2], the “growth inhibition (GI)” value is “Dose-dependent effect”. The molecule further yielded an IC50 in the series on A549 [2] of 7.2 µM. Further, the outcome with A549 [3], with A549 [8] and with A549 [9] was inactive. Besides, the result with A549 [4], in the series with A549 [5], in the series with A549 [6] and in the series on A549 [7] was Active.

Consider `COc1ccc(C2CC(c3cc4ccc(O)cc4oc3=O)=NN2c2ccc(Cl)cc2)cc1` (stereo unspecified), for which the inhibition entry in [1] was “Dose-dependent effect”. For the same molecule, in the series on A549 [2], the “growth inhibition (GI)” value is “Dose-dependent effect”. In addition, half-maximal inhibition with A549 [2] (IC50) was put at 9.6 µM. The outcome with A549 [3], with A549 [8] and in the series on A549 [9] was inactive. Moreover, the outcome in the series with A549 [4], in the series with A549 [5], in the series on A549 [6] and in the series on A549 [7] was Active.

Turning to `COc1ccc(C2CC(c3cc4ccc(O)cc4oc3=O)=NN2c2ccc(F)cc2)cc1` (stereo unspecified), in [1], the inhibition result is “Dose-dependent effect”. In addition, the “growth inhibition (GI)” value with A549 [2] was “Dose-dependent effect”. Moreover, in the series on A549 [2], half-maximal inhibition (IC50) was put at 7.1 µM. The outcome in the series on A549 [3], with A549 [8] and in the series on A549 [9] was inactive. In addition, the result in the series on A549 [4], in the series on A549 [5], in the series with A549 [6] and with A549 [7] was Active.

Consider `O=c1oc2cc(O)ccc2cc1C1=NN(c2ccccc2)C(c2ccccc2)C1` (stereo unspecified), for which the inhibition result in series [1] was “Dose-dependent effect”. For the same molecule, the inhibition entry in series [11] and in series [12] was “Active” in each case. Besides, the Activity result with A549 [13], in the series on A549 [14] and in the series on HUVEC was “Non-Toxic” throughout. In the series on A549 [2], the “growth inhibition (GI)” value was “Dose-dependent effect”. Besides, the IC50 in the series with A549 [2] was found to be 4.7 µM. For the same molecule, the result in the series with A549 [3], in the series on A549 [8] and in the series with A549 [9] was inactive. Moreover, the result with A549 [4], in the series on A549 [5], in the series with A549 [6] and in the series on A549 [7] was Active.

In the case of `COc1ccc(C2CC(c3cc4ccc(O)cc4oc3=O)=NN2c2ccccc2)cc1` (stereo unspecified), the inhibition entry in [1] is “Dose-dependent effect”. Also, in the series with A549 [2], the “growth inhibition (GI)” value is “Dose-dependent effect”. Further, the IC50 in the series with A549 [2] is 6.3 µM. Further, the result with A549 [3], in the series with A549 [8] and in the series on A549 [9] was inactive. Also, the outcome in the series on A549 [4], in the series on A549 [5], with A549 [6] and in the series on A549 [7] was Active.
